Some test systems named below: Candida albicans MDM8; Escherichia coli SBS 363; Micrococcus luteus A270; Bacillus subtilis 168; Escherichia coli B; Pseudomonas aeruginosa; Staphylococcus aureus.
Common to all, as to test: ≥ marks a high value that may be exact or a test limit, other limits are often not marked, values filed in µg/mL are converted to µM
Assay [1] deals with Bacillus megaterium ATCC 10778.
In assay [2] the test system is Bacillus subtilis ATCC 6633.
The test system of assay [3] is Candida tropicalis IOC 4560.
In assay [4] the test system is Enterobacter cloacae beta-12.
The subject of assay [5] is Pseudomonas aeruginosa ATCC 27853.
Assay [6] deals with Serratia marcescens ATCC 4112.
The subject of assay [7] is Staphylococcus aureus ATCC 29213.
For assay [8], the system named is Batrachochytrium dendrobatidis JEL-197.
Assay [9] relates to Candida albicans ATCC 90028.
Assay [10] concerns Escherichia coli ATCC 25922.
The test system of assay [11] is Staphylococcus aureus NCTC 8325.
Assay [12] deals with Escherichia coli ATCC 25726.
Assay [13] concerns Staphylococcus aureus ATCC 25923.
In assay [14] the test system is Staphylococcus aureus SH1000.
Assay [15] deals with Acinetobacter baumannii ATCC 19606.
Assay [16] concerns Cryptococcus neoformans ATCC 208821.
The subject of assay [17] is Klebsiella pneumoniae ATCC 700603.
Assay [18] has as its system Staphylococcus aureus ATCC 43300.
Assay [19] has as its system Staphylococcus epidermidis ATCC 12228.
Assay [20] has as its system Candida albicans ATCC 10231.
The subject of assay [21] is Cryptococcus neoformans ATCC 32264.

Among the data in DBAASP are MIC values, retold here.

Converted amounts (≈) assume the structure as drawn. Some results are limits rather than exact numbers.

What is called MIC is the least concentration at which growth counts as inhibited. The low end stands for inhibition by little substance, the high end for a need for much substance.

For the molecule `CC(C)C[C@H](NC(=O)[C@H](C)NC(=O)CNC(=O)[C@H](CC(C)C)NC(=O)[C@@H](N)Cc1ccccc1)C(=O)N[C@@H](Cc1c[nH]c2ccccc12)C(=O)N[C@@H](CC(N)=O)C(=O)N[C@H](C(=O)N[C@@H](C)C(=O)N[C@@H](CCCCN)C(=O)N[C@@H](CO)C(=O)N[C@@H](CC(C)C)C(=O)N[C@@H](Cc1ccccc1)C(N)=O)C(C)C` [FLGALWNVAKSLF], the minimum inhibitory concentration (MIC) is 3.1 µM (≈ 4.54 µg/mL) in assay [1]; 0.8 µM (≈ 1.17 µg/mL) in [2]; 3.1 µM (≈ 4.54 µg/mL) in the assay on Candida albicans MDM8; 3.1 µM (≈ 4.54 µg/mL) in assay [3]; ≥ 50 µM in [4]; 0.8 µM (≈ 1.17 µg/mL) against Escherichia coli SBS 363. For the same molecule, the minimal inhibitory concentration (MIC) in the assay with Micrococcus luteus A270 was 0.8 µM (≈ 1.17 µg/mL); in [5] it was > 50 µM; in [6], 0.4 µM (≈ 0.586 µg/mL); in assay [7] it was 0.8 µM (≈ 1.17 µg/mL).
Regarding `CC[C@H](C)[C@H](NC(=O)[C@@H]1CCCN1C(=O)[C@H](CC(C)C)NC(=O)[C@@H](N)Cc1ccccc1)C(=O)N[C@@H](CC(C)C)C(=O)N[C@@H](C)C(=O)N[C@@H](CO)C(=O)N[C@@H](CC(C)C)C(=O)N[C@@H](C)C(=O)N[C@@H](C)C(=O)N[C@@H](CCCCN)C(=O)N[C@@H](CC(C)C)C(=O)NCC(=O)N1CCC[C@H]1C(=O)N[C@@H](CCCCN)C(=O)N[C@@H](CC(C)C)C(=O)N[C@@H](Cc1ccccc1)C(=O)N[C@H]1CSSC[C@@H](C(=O)O)NC(=O)[C@H](CCCCN)NC(=O)[C@H](CCCCN)NC(=O)[C@H]([C@@H](C)O)NC(=O)[C@H](C(C)C)NC(=O)[C@H](CC(C)C)NC1=O` [FLPILASLAAKLGPKLFCLVTKKC], the MIC in [8] worked out at 6.25 µM (≈ 16.1 µg/mL); in assay [9], 16 µM (≈ 41.2 µg/mL); in assay [10] it was 16 µM (≈ 41.2 µg/mL); in [11], 4 µM (≈ 10.3 µg/mL).
For `CC[C@H](C)[C@H](NC(=O)CN)C(=O)N[C@@H](CC(C)C)C(=O)N[C@@H](CO)C(=O)N[C@@H](CO)C(=O)N[C@@H](Cc1ccccc1)C(=O)N[C@@H](CCCCN)C(=O)N[C@@H](CC(=O)O)C(=O)N[C@H](C(=O)N[C@@H](C)C(=O)N[C@@H](CCCCN)C(=O)NCC(=O)N[C@H](C(=O)N[C@@H](C)C(=O)N[C@@H](CCCCN)C(=O)N[C@@H](CC(N)=O)C(=O)N[C@H](C(=O)N[C@@H](C)C(=O)N[C@@H](C)C(=O)N[C@@H](CCC(N)=O)C(=O)N[C@@H](CC(C)C)C(=O)N[C@@H](CC(C)C)C(=O)N[C@@H](CC(=O)O)C(=O)N[C@@H](CCCCN)C(=O)N[C@@H](CC(C)C)C(=O)N[C@@H](CCCCN)C(=O)N[C@H]1CSSC[C@@H](C(=O)O)NC(=O)CNC(=O)[C@H]([C@@H](C)O)NC(=O)[C@H]([C@@H](C)CC)NC(=O)[C@H](CCCCN)NC1=O)C(C)C)C(C)C)C(C)C` [GILSSFKDVAKGVAKNVAAQLLDKLKCKITGC], the results for the MIC in assay [8], in assay [12] and in assay [13] were ≥ 50 µM, 10 µM (≈ 33.2 µg/mL) and 20 µM (≈ 66.4 µg/mL), respectively.
On to `CC[C@H](C)[C@H](NC(=O)[C@H](CCCCN)NC(=O)[C@H](CCCCN)NC(=O)[C@H](CC(C)C)NC(=O)[C@H](CC(C)C)NC(=O)[C@H](CO)NC(=O)[C@H](CCSC)NC(=O)[C@H](Cc1c[nH]c2ccccc12)NC(=O)[C@H](CCCCN)NC(=O)CN)C(=O)N[C@@H](CC(C)C)C(=O)N[C@@H](CCCCN)C(N)=O` [GKWMSLLKKILK], for which the MIC is 1.2 µM (≈ 1.73 µg/mL) with Bacillus subtilis 168, 2.7 µM (≈ 3.9 µg/mL) in the assay with Escherichia coli B, 13.8 µM (≈ 19.9 µg/mL) in the assay with Pseudomonas aeruginosa and 6.3 µM (≈ 9.1 µg/mL) against Staphylococcus aureus.
For the molecule `CC[C@H](C)[C@H](NC(=O)[C@H](CC(=O)O)NC(=O)[C@H](Cc1ccccc1)NC(=O)[C@H](CC(C)C)NC(=O)CN)C(=O)N[C@@H](CC(C)C)C(=O)N[C@@H](CCCCN)C(=O)N[C@@H](CCCCN)C(=O)N[C@@H](CC(C)C)C(=O)N[C@@H](CC(C)C)C(=O)N[C@@H](CCCCN)C(=O)N[C@@H](CC(C)C)C(=O)N[C@@H](CC(C)C)C(=O)N[C@@H](CCCCN)C(N)=O` [GLFDILKKLLKLLK], the MIC in [14] was ≥ 100 µM.
In the case of `CC(C)C[C@H](NC(=O)CN)C(=O)N[C@@H](CC(C)C)C(=O)N[C@@H](CCCCN)C(=O)N[C@@H](CC(C)C)C(=O)N[C@@H](CC(C)C)C(=O)N[C@@H](CCCCN)C(=O)N[C@@H](CCCCN)C(=O)N[C@@H](CC(C)C)C(=O)N[C@@H](CC(C)C)C(=O)N[C@@H](CCCCN)C(=O)N[C@@H](CC(C)C)C(=O)N[C@@H](CC(C)C)C(=O)N[C@@H](CCCCN)C(N)=O` [GLLKLLKKLLKLLK], the minimal inhibitory concentration (MIC) is 1 µM (≈ 1.62 µg/mL) in [15]; 12 µM (≈ 19.4 µg/mL) in [9]; 1 µM (≈ 1.62 µg/mL) in assay [16]; > 19 µM in [10]; > 19 µM in assay [17]; > 19 µM in assay [5]. In addition, the MIC in assay [18] was > 19 µM; in assay [14] it was ≥ 33 µM.
As to `CC(C)C[C@H](NC(=O)[C@H](C)NC(=O)CNC(=O)[C@H](CC(C)C)NC(=O)[C@@H](N)CCCCN)C(=O)N[C@@H](Cc1c[nH]c2ccccc12)C(=O)N[C@@H](CC(N)=O)C(=O)N[C@H](C(=O)N[C@@H](C)C(=O)N[C@@H](CCCCN)C(=O)N[C@@H](CO)C(=O)N[C@@H](CCCCN)C(=O)N[C@@H](Cc1ccccc1)C(N)=O)C(C)C` [KLGALWNVAKSKF], the minimal inhibitory concentration (MIC) is 6.3 µM (≈ 9.2 µg/mL) in assay [1]; 12.5 µM (≈ 18.3 µg/mL) in the assay on Candida albicans MDM8; 25 µM (≈ 36.5 µg/mL) in assay [3]; ≥ 50 µM in [4]; ≥ 50 µM against Escherichia coli SBS 363; 25 µM (≈ 36.5 µg/mL) against Micrococcus luteus A270. In addition, the MIC in assay [6] was ≥ 50 µM; in assay [7], > 50 µM; in assay [19], > 50 µM.
In the case of `CC(C)C[C@H](NC(=O)[C@H](C)NC(=O)CNC(=O)[C@@H](NC(=O)[C@@H](NC(=O)[C@H](CCCCN)NC(=O)[C@H](CCCCN)NC(=O)[C@H](CC(C)C)NC(=O)[C@H](CC(C)C)NC(=O)[C@H](CCCCN)NC(=O)[C@H](CC(C)C)NC(=O)[C@H](CC(C)C)NC(=O)[C@@H](N)CCCCN)C(C)C)C(C)C)C(=O)NCC(N)=O` [KLLKLLKKVVGALG], the MIC in [15] is 5 µM (≈ 7.39 µg/mL); in assay [9], 22 µM (≈ 32.5 µg/mL); in assay [16], 11 µM (≈ 16.3 µg/mL); in [10], 11 µM (≈ 16.3 µg/mL); in assay [17], 22 µM (≈ 32.5 µg/mL); in assay [5], > 22 µM. In addition, the MIC came out at 22 µM (≈ 32.5 µg/mL) in assay [18] and 10 µM (≈ 14.8 µg/mL) in assay [14].
Regarding `NCCCC[C@H](NC(=O)[C@H](CCCCN)NC(=O)[C@H](Cc1c[nH]c2ccccc12)NC(=O)[C@H](CCCCN)NC(=O)[C@H](CCCN=C(N)N)NC(=O)[C@H](CCCN=C(N)N)NC(=O)[C@H](Cc1c[nH]c2ccccc12)NC(=O)[C@H](CCCCN)NC(=O)[C@@H](N)CCCN=C(N)N)C(N)=O` [RKWRRKWKK], the MIC in [20] was 200 µM (≈ 274 µg/mL); in assay [21] it was ≥ 200 µM.
On the same counts, the results for `NC(=O)CC[C@H](NC(=O)[C@H](Cc1c[nH]c2ccccc12)NC(=O)[C@H](CCCN=C(N)N)NC(=O)[C@H](CCCN=C(N)N)NC(=O)[C@H](Cc1c[nH]c2ccccc12)NC(=O)[C@H](Cc1c[nH]c2ccccc12)NC(=O)[C@H](CCCN=C(N)N)NC(=O)[C@@H](N)Cc1c[nH]c2ccccc12)C(=O)N[C@@H](CCCN=C(N)N)C(N)=O` [WRWWRRWQR] are 50 µM (≈ 75.7 µg/mL) and 25 µM (≈ 37.9 µg/mL).
